Reference: ChEMBL document CHEMBL5465560, “Selectivity Literature for EUbOPEN Chemogenomic Library” (2024)
One block for each compound: values may come before it.

Tests used:
[1] = target: DNA (cytosine-5)-methyltransferase 1 (Homo sapiens) (UniProt P26358); assay: Selectivity interaction (Methyltransferase screen (radiometric assays, panel of 8 PRMTs, 21 protein lysine methyltransferases, 3 DNA methyltransferases, and one RNA methyltransferase)) EUB0000271b DNMT1
[2] = target: MAP kinase-interacting serine/threonine-protein kinase 2 (Homo sapiens, UniProt Q9HBH9); assay: Selectivity interaction (Ambit KINOMEscan and KiNATiv profiling in Jurkat cells) EUB0000090b MKNK2; assay type: cell-based; settings: at 1 µM
Chain of MAP kinase-interacting serine/threonine-protein kinase 2 (Q9HBH9 whole entry, looked up): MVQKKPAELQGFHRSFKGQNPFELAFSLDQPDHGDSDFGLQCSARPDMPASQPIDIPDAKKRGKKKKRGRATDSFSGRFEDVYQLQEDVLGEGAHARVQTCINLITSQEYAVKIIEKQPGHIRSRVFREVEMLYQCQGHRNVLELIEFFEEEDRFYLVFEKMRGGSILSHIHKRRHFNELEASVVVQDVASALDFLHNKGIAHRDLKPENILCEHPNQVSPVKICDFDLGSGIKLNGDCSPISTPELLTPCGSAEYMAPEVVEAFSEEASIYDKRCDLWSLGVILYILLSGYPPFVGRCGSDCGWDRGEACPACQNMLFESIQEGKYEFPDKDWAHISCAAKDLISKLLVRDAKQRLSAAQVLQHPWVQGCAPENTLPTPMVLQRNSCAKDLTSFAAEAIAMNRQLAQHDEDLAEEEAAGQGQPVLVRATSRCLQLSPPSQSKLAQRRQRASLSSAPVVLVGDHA

[3] = target: Casein kinase II subunit alpha' (Homo sapiens) (UniProt P19784); assay: Selectivity interaction (KinomeScan (DiscoverX)) EUB0000655a CSNK2A2; settings: at 10 µM
Chain of Casein kinase II subunit alpha' (Homo sapiens) (P19784 whole entry, looked up): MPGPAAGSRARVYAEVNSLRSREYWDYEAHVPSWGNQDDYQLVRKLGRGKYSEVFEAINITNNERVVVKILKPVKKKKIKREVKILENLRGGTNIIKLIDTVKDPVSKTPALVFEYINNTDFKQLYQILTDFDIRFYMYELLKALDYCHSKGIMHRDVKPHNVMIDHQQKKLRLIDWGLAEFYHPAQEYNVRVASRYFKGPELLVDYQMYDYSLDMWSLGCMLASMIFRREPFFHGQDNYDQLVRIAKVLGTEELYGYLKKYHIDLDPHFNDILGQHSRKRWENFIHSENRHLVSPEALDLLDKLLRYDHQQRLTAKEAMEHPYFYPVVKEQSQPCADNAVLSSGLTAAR

[4] = target: Serine/threonine-protein kinase PLK1 (Homo sapiens, UniProt P53350); assay: Selectivity interaction (KinomeScan (DiscoverX)) EUB0001079a PLK1; settings: at 1 µM
Chain of Serine/threonine-protein kinase PLK1 (P53350 whole entry): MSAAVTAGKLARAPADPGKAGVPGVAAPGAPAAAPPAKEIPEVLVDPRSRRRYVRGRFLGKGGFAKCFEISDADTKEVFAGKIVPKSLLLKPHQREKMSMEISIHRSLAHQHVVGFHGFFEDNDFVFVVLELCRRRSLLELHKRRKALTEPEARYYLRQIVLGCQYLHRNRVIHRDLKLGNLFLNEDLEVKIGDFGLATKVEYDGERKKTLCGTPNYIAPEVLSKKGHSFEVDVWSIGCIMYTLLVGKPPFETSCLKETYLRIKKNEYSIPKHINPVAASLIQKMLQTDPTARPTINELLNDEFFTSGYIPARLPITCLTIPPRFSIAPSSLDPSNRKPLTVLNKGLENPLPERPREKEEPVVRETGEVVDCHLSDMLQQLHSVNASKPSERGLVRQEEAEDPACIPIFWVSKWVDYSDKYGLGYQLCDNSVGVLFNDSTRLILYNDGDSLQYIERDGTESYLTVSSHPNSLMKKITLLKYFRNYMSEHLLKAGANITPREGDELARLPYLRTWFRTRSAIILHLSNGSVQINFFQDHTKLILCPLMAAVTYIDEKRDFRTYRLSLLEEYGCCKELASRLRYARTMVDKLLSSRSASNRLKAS

[5] = target: T1, Protein kinase C epsilon type (Homo sapiens) (UniProt Q02156); assay: Selectivity interaction (KinomeScan (DiscoverX)) EUB0001619a PRKCE; settings: at 1 µM
T1 sequence (whole entry): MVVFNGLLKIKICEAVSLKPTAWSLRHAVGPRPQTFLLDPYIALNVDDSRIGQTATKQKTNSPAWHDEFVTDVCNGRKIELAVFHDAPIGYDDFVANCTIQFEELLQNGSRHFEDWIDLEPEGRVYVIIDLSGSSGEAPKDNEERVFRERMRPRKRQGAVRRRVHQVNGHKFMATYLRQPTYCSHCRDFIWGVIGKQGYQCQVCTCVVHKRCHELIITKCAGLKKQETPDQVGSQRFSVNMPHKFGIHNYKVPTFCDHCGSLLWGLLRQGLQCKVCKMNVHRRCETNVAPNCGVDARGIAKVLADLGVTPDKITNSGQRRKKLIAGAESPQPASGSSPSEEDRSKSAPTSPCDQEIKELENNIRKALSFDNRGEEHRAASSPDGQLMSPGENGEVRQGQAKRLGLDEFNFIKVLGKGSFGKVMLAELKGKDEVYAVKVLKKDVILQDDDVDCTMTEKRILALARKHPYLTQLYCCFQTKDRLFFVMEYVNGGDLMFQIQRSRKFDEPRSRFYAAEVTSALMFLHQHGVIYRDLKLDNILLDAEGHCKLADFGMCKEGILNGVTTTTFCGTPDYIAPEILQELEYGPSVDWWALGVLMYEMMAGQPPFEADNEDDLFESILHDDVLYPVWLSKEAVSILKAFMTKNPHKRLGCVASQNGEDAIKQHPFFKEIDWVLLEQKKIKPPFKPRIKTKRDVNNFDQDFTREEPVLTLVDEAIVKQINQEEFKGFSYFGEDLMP

[6] = target: T2, Phosphatidylinositol 5-phosphate 4-kinase type-2 gamma (Homo sapiens) (UniProt Q8TBX8); assay: Selectivity interaction (ActivX KiNativ screen (kinase selectivity in THP-1 cell lysates)) EUB0000639a PIP4K2C; assay type: subcellular; settings: lysate, at 0.2 µM
T2 sequence (whole entry): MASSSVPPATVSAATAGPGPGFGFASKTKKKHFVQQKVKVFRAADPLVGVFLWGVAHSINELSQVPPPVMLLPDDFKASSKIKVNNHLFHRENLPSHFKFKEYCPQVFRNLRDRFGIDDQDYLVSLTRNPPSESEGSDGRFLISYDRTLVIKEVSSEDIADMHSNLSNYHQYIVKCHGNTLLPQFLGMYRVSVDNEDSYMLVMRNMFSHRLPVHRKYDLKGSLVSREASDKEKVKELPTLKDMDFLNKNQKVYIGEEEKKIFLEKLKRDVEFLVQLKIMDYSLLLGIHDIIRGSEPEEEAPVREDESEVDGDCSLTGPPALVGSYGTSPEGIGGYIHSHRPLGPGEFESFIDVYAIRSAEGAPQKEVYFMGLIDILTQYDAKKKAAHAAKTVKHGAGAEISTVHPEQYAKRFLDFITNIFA

[7] = target: T3, Rhodopsin kinase GRK7 (Homo sapiens) (UniProt Q8WTQ7); assay: Selectivity interaction (Kinase panel (Z-LYTE Assay)) EUB0001632a GRK7; settings: at 10 µM
T3 sequence (whole entry): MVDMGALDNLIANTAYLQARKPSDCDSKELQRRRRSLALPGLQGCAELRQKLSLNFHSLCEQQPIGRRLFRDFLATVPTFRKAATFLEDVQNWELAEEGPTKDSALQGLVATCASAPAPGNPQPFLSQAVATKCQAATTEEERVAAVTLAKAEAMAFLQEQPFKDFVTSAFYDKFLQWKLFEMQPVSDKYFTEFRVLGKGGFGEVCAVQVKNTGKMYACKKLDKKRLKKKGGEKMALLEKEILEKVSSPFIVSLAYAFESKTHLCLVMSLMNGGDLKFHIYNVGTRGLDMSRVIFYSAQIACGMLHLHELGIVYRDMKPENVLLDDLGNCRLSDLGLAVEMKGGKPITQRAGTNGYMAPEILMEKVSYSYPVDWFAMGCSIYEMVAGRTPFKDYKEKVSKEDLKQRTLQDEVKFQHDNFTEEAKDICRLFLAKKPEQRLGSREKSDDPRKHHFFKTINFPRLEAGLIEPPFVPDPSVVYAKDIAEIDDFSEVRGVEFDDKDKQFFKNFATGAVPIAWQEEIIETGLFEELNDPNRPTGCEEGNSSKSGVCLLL

[8] = system: Fibroblast growth factor receptor 3 (Homo sapiens), P22607 [G697C]; assay: (§1) Selectivity interaction (KinomeScan (DiscoverX)) EUB0000695a FGFR3; settings: at 100 nM
Chain of Fibroblast growth factor receptor 3 (Homo sapiens), P22607 [G697C] (P22607 whole entry G697C): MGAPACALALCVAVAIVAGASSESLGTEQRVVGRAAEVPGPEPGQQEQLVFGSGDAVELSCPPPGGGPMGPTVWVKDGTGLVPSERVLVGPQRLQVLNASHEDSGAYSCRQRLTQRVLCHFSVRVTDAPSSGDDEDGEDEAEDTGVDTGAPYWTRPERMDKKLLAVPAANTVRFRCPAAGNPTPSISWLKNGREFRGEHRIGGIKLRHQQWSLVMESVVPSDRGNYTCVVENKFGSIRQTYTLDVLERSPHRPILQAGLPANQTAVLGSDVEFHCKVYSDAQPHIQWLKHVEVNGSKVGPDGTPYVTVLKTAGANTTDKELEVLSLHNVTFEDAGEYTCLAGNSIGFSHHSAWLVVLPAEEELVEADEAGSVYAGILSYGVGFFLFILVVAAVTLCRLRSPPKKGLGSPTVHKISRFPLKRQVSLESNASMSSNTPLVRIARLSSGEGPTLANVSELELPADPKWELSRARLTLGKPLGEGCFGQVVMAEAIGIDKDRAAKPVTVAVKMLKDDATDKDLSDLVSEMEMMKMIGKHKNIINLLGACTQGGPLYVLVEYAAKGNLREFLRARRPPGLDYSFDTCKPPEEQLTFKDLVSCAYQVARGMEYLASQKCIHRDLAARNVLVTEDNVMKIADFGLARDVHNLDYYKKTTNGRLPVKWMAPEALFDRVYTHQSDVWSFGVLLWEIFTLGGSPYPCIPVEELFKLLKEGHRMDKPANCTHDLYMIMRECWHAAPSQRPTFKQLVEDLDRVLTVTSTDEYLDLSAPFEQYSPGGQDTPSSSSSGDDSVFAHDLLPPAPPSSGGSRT

[9] = target: Fibroblast growth factor receptor 3 (Homo sapiens, UniProt P22607); assay: as §1; settings: at 100 nM
Chain of Fibroblast growth factor receptor 3 (P22607 23-806 limits assumed): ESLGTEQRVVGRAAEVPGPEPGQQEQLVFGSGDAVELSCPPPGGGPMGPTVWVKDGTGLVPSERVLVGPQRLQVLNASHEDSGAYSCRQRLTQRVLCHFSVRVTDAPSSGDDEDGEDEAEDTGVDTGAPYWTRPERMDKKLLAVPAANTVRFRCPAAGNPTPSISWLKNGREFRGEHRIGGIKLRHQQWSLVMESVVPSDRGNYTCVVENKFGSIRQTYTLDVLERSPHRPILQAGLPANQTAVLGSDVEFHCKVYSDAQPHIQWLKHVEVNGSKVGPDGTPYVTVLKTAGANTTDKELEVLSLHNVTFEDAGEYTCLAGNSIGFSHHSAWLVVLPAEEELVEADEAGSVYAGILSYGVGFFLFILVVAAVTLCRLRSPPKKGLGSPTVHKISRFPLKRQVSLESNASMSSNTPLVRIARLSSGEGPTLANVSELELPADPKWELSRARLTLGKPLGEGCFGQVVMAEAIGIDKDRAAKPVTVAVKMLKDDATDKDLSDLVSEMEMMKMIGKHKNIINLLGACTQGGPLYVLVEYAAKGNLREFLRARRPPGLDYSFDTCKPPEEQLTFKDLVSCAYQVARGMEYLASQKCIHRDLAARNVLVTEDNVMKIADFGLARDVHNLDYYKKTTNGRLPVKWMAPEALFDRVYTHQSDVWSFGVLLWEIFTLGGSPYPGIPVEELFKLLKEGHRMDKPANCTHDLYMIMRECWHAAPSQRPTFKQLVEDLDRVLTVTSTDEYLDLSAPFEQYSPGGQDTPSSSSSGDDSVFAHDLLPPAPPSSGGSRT

Chain of DNA (cytosine-5)-methyltransferase 1 (Homo sapiens) (P26358 whole entry): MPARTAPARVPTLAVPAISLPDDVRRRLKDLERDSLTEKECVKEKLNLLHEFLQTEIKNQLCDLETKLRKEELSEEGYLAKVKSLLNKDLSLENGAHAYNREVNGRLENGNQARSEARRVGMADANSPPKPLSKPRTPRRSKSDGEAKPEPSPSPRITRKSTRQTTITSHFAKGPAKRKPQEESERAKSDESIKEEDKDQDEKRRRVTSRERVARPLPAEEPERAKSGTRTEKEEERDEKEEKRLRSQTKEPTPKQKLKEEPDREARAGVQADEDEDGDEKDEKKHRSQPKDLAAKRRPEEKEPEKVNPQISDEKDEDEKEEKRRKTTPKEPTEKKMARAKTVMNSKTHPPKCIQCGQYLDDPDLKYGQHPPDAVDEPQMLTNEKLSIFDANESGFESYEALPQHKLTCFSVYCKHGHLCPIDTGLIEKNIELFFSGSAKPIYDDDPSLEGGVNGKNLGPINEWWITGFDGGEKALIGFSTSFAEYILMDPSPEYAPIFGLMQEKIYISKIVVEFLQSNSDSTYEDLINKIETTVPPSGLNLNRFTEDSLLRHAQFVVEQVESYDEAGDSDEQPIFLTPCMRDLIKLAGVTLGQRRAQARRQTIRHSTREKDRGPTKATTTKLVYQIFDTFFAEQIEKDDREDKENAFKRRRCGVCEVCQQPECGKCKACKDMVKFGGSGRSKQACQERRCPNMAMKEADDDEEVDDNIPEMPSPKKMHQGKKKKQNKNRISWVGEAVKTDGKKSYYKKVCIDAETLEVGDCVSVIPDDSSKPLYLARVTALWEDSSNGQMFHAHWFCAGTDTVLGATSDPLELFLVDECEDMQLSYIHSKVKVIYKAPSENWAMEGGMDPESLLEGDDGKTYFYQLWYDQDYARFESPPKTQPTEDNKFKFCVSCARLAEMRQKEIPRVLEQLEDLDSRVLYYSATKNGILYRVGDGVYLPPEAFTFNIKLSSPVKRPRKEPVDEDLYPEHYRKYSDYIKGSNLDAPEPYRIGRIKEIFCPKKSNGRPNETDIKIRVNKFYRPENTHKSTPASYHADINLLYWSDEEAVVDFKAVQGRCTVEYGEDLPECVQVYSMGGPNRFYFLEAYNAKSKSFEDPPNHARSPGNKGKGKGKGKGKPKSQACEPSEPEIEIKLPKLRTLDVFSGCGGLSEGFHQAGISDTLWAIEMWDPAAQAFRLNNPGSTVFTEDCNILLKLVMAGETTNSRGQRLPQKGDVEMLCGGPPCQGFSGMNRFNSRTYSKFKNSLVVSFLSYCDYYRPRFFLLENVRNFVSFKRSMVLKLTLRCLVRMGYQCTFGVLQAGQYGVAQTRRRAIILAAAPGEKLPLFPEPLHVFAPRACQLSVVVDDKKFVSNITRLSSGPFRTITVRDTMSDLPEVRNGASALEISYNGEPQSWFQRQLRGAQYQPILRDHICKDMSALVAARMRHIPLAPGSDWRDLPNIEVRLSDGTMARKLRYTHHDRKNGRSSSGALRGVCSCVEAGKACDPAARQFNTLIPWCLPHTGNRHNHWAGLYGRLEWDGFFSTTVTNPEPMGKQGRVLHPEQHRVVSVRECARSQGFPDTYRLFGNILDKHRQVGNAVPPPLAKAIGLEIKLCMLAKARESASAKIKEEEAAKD

SMILES: Cc1cc(C)cc([C@@H]2c3cc(C)ccc3NC(=O)CN2C(=O)c2ccc(Br)s2)c1
% of activity ([1]; at 1 µM): 98.3%
% of activity ([1]; at 10 µM): 97.7%

SMILES: CN(C)C/C=C/C(=O)Nc1ccc(C(=O)N2CCCC(Nc3ncc(Cl)c(-c4c[nH]c5ccccc45)n3)C2)cc1 (stereo not given)
% of control [2]: 88%

SMILES: CN(C)CCOc1ccc(-c2nc(-c3ccncc3)c(-c3ccc4c(c3)CC/C4=N\O)[nH]2)cc1
% of control [3]: 74%

SMILES: Nc1cnc(N2CCc3cc(S(=O)(=O)Nc4c(F)cc(Cl)cc4F)cc(N4CCCC4=O)c32)nc1 [TP-020n]
% of control [4]: 100%

SMILES: N#Cc1cccc(-c2c[nH]c3ncnc(N4CCOCC4)c23)c1
% of control [5]: 12%

% of inhibition [6]: 51.3%
SMILES: CC[C@@H]1[C@H](F)C(=O)N[C@@H]1COc1nccc2cc(C(N)=O)c(OC)cc12 [ZIMLOVISERTIB]

% of control [7]: -0.279%
SMILES: Cn1cc(-n2cnc3c(NCc4nc5cc(Cl)c(Cl)cc5[nH]4)nc(N4CCOCC4)nc32)cn1

SMILES: Cc1cc(F)c(C(=O)Nc2cccc(-c3nncn3C(C)C)n2)cc1-n1cnc(C2CC2)c1
% of control [8]: 88%
% of control [9]: 93%
